For the first assay, the system named is ddY-type mice. Put plainly: Analgesic efficacy test (1): acetic acid writhing test (nociceptive pain model animal). The format is in vivo. To be noted: Mus musculus, 25 min; writhing number, male ddY mice, oral single dose 10 mg/kg, acetic acid i.p. 25 min after administration, mean ± standard error; read-out: Percent Suppression (%). From the text:
A compound of the present invention was orally administered to mice, to carry out an analgesic efficacy test according to acetic acid writhing test (nociceptive pain model animal). As an experimental animal, 4-week old male ddY-type mice were previously bred, and thereafter 8 mice per one group were used in the experiment. A solution or suspension prepared by dissolving or suspending a compound of the present invention in a 0.5% (w/v) aqueous CMC-Na solution was orally administered as a test substance in a single dose. While, to a control group, a 0.5% (w/v) aqueous CMC-Na solution was administered in the same manner. After 25 minutes from administration, the mice were intraperitoneally administered with a 0.7% (v/v) acetic acid/physiological saline at the dose of 10 mL/kg. From 5 minutes thereafter, writhing number in a 10-minute period was counted, and a suppressive rate for each individual (mean±standard error) was calculated by the following formula: […]
In the test for significance difference, Baltlett's test was carried out in the comparison between multiple groups of the group administered with test substance with the control group. In the case of homoscedasticity, Dunnett's multiple comparison test of parametrics, and in the case of heteroscedasticity, Dunnett's multiple comparison test of non-parametrics were used. In addition, in the test of dose dependency, Jockheere-Terpstra's test was used. In all cases, significance difference was considered to be found at P<0.05.
Consider `COc1ccc(C[C@H](NC(=O)C=Cc2cccc(O)c2)C(=O)O)cc1` [Compound 43, N-[3-(3-Hydroxyphenyl)acryloyl]-O^4-methyl-L-tyrosine], for which the inhibition in vivo at 10 mg/kg turned out to be 45.3 ± 10.8%. `O=C(C=Cc1ccccc1F)N[C@@H](Cc1ccc(O)cc1)C(=O)O` [Compound 62, N-[3-(2-Fluorophenyl)acryloyl]-L-tyrosine]: the inhibition in vivo at 10 mg/kg came to 39.2 ± 13.5%. Same read-out and setting: the value for `Cn1cc(C[C@H](NC(=O)C=Cc2ccccc2O)C(=O)O)c2ccccc21` [Compound 26, N^α-[3-(2-Hydroxyphenyl)acryloyl]-1-methyl-L-tryptophan] was 30.5 ± 9.2%.

Turning to `COc1ccc(C[C@H](NC(=O)C=Cc2ccc(O)cc2)C(=O)O)cc1` [Compound 44, N-[3-(4-Hydroxyphenyl)acryloyl]-O^4-methyl-L-tyrosine], the inhibition in vivo at 10 mg/kg was determined as 48 ± 10.3%. With `COc1ccc(C[C@H](NC(=O)C=Cc2ccccc2OC)C(=O)O)cc1` [Compound 48, N-[3-(2-Methoxyphenyl)acryloyl]-O^4-methyl-L-tyrosine], the inhibition in vivo at 10 mg/kg stood at 43.2 ± 7.3%.

Staying with this assay, now noted: Mus musculus, 25 min; writhing number, male ddY mice, oral single dose 100 mg/kg, acetic acid i.p. 25 min after administration, mean ± standard error; read-out: Percent Suppression (%).
In the case of `Cn1cc(C[C@H](NC(=O)C=Cc2c(F)cccc2F)C(=O)O)c2ccccc21` [Compound 31, N^α-[3-(2,6-Difluorophenyl)acryloyl]-1-methyl-L-tryptophan], the inhibition in vivo at 100 mg/kg stood at 31.5 ± 9.7%. The same measure, in the same setting: the value for `COc1ccc(C[C@H](NC(=O)C=Cc2cccc(C#N)c2)C(=O)O)cc1` [Compound 54, N-[3-(3-Cyanophenyl)acryloyl]-O^4-methyl-L-tyrosine] was 33.3 ± 10%; that for `NC(=O)CC[C@H](NC(=O)C=Cc1ccccc1F)C(=O)O` [Compound 65, N^α-[3-(2-Fluorophenyl)acryloyl]-L-glutamine] was 31.6 ± 13.1%; that for `COc1ccc(C[C@H](NC(=O)C=Cc2ccccc2Cl)C(=O)O)cc1` [Compound 49, N-[3-(2-Chlorophenyl)acryloyl]-O^4-methyl-L-tyrosine] was 31.8 ± 7%. For `COc1ccc(C[C@H](NC(=O)C=Cc2c(F)cccc2F)C(=O)O)cc1` [Compound 50, N-[3-(2,6-Difluorophenyl)acryloyl]-O^4-methyl-L-tyrosine], the inhibition in vivo at 100 mg/kg stood at 35.1 ± 15.4%.

For the molecule `COc1ccc(C[C@H](NC(=O)C=Cc2cc(C(F)(F)F)cc(C(F)(F)F)c2)C(=O)O)cc1` [Compound 53, N-{3-[3,5-Bis(trifluoromethyl)phenyl]acryloyl}-O^4-methyl-L-tyrosine], the inhibition in vivo at 100 mg/kg is 32 ± 14.6%. For the molecule `Cn1cc(C[C@H](NC(=O)C=Cc2ccc(Oc3ccccc3)cc2)C(=O)O)c2ccccc21` [Compound 35, 1-Methyl-N^α-[3-(4-phenoxyphenyl)acryloyl]-L-tryptophan], the inhibition in vivo at 100 mg/kg was 55.2 ± 7.4%. Take `COc1ccc(C[C@H](NC(=O)C=Cc2ccccc2C#N)C(=O)O)cc1` [Compound 46, N-[3-(2-Cyanophenyl)acryloyl]-O^4-methyl-L-tyrosine]: the inhibition in vivo at 100 mg/kg stood at 38.7 ± 11.3%. For the molecule `O=Cn1cc(C[C@H](NC(=O)C=Cc2ccccc2F)C(=O)O)c2ccccc21` [Compound 68, N^α-[3-(2-Fluorophenyl)acryloyl]-1-formyl-L-tryptophan], the inhibition in vivo at 100 mg/kg worked out at 55.4 ± 9.9%. Consider `O=C(C=Cc1ccc(O)cc1)N[C@@H](Cc1c[nH]c2ccccc12)C(=O)O` [Compound 7, N^α-[3-(4-Hydroxyphenyl)acryloyl]-L-tryptophan], for which the inhibition in vivo at 100 mg/kg was 37.3 ± 11.8%.

Consider `O=C(C=Cc1ccccc1Cl)N[C@@H](Cc1c[nH]c2ccccc12)C(=O)O` [Compound 12, N^α-[3-(2-Chlorophenyl)acryloyl]-L-tryptophan], for which the inhibition in vivo at 100 mg/kg amounted to 34.9 ± 11.5%. `COc1ccc(C[C@H](NC(=O)C=Cc2ccccc2C(F)(F)F)C(=O)O)cc1` [Compound 47, O^4-Methyl-N-[3-(2-Trifluoromethylphenyl)acryloyl]-L-Tyrosine]: the inhibition in vivo at 100 mg/kg is 36.2 ± 11.2%. For the molecule `COc1ccc(C[C@H](NC(=O)C=Cc2cccc(F)c2)C(=O)O)cc1` [Compound 41, N-[3-(3-Fluorophenyl)acryloyl]-O^4-methyl-L-tyrosine], the inhibition in vivo at 100 mg/kg worked out at 47.3 ± 15.7%.

Values taken from patent US9150510B2, “Amino acid derivative” (NIPPON ZOKI PHARMACEUTICAL CO., LTD., priority 2008, dated 2015).
